Square brackets hold non-standard residues; d marks the D form. Ends that are not written are not given here.
T1: GIPR (Homo sapiens, UniProt P48546)
T1 sequence (P48546 22-466): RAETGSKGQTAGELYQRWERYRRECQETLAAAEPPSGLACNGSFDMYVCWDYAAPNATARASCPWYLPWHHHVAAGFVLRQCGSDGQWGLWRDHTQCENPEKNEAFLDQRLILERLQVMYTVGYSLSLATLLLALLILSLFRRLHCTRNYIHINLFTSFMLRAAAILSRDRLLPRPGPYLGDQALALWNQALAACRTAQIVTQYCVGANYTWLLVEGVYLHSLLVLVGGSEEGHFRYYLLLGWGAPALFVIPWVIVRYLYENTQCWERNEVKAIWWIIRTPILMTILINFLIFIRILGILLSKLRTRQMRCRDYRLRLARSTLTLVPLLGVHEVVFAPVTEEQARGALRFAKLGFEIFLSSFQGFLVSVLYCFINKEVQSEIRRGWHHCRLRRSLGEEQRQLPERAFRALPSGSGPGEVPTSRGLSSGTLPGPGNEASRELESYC

T2: GIPR-SmBiT (UniProt P48546)
T2 sequence: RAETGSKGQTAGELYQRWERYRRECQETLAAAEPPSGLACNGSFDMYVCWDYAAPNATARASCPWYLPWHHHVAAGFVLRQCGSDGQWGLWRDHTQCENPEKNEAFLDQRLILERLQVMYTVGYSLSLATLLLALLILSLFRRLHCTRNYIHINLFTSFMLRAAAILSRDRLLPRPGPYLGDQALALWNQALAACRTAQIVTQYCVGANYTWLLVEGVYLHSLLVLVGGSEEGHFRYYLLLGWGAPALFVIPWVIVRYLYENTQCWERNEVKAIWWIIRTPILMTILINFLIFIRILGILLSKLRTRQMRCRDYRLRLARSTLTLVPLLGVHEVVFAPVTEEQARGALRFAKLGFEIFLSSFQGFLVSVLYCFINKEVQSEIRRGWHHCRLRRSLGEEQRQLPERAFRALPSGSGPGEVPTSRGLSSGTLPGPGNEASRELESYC


Key:
[1] = target: T3, GLP-1R (Homo sapiens, UniProt P43220); assay: β-arrestin-2 recruitment by enzyme fragment complementation (PathHunter) CHO-GLP-1R; type: cell-based; details: read-out: βarr2 Emax (% GLP-1)
T3 sequence (P43220 24-463): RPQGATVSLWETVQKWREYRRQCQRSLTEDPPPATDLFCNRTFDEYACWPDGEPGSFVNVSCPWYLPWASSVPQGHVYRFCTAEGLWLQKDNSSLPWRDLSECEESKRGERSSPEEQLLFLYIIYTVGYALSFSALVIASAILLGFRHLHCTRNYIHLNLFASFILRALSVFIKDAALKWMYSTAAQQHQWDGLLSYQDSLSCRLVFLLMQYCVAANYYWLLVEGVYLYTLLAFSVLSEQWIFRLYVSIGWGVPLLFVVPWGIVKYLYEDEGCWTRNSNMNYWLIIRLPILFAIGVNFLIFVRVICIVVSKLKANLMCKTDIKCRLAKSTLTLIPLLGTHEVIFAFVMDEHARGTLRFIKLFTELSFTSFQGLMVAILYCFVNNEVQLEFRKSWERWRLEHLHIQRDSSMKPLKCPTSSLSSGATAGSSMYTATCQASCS

[2] = target: T3, GLP-1R; assay: cAMP response (HTRF) in PathHunter CHO-GLP-1R cells; type: cell-based; details: read-out: cAMP Emax (% GLP-1)
[3] = target: T1, GIPR; assay: β-arrestin-2 recruitment by enzyme fragment complementation (PathHunter) CHO-GIPR; type: cell-based; details: for Emax: read-out: βarr2 Emax (% GIP)
[4] = target: T1, GIPR; assay: cAMP response (HTRF) in PathHunter CHO-GIPR cells; type: cell-based; details: for Emax: read-out: cAMP Emax (% GIP)
[5] = target: GLP-1R-SmBiT (UniProt P43220); assay: split reporter (BiFC, NanoBiT); NanoBiT complementation in HEK293T cells co-transfected with receptor-SmBiT and LgBiT-tagged effector; furimazine; 37 °C; baseline 5 min, then 100 nM cognate agonist (GLP-1, GIP or GCG) or vehicle, luminescence over 30 min, normalised to baseline and vehicle
Chain of GLP-1R-SmBiT (P43220 24-463): as above

[6] = target: T2, GIPR-SmBiT; assay: as above
[7] = target: T2, GIPR-SmBiT
[8] = target: T2, GIPR-SmBiT; remark: listed apart in the source

Molecule | EC50 [3] | Emax [3] | EC50 [4] | Emax [4] | other results
CC[C@H](C)[C@H](NC(=O)[C@H](Cc1ccccc1)NC(=O)[C@H](CCC(=O)O)NC(=O)[C@H](CCCCN)NC(=O)[C@H](C)NC(=O)[C@H](C)NC(=O)[C@H](CCC(N)=O)NC(=O)CNC(=O)[C@H](CCC(=O)O)NC(=O)[C@H](CC(C)C)NC(=O)[C@H](Cc1ccc(O)cc1)NC(=O)[C@H](CO)NC(=O)[C@H](CO)NC(=O)[C@@H](NC(=O)[C@H](CC(=O)O)NC(=O)[C@H](CO)NC(=O)[C@@H](NC(=O)[C@H](Cc1ccccc1)NC(=O)[C@@H](NC(=O)CNC(=O)[C@H](CCC(=O)O)NC(=O)CNC(=O)[C@@H](N)Cc1c[nH]cn1)[C@@H](C)O)[C@@H](C)O)C(C)C)C(=O)N[C@@H](C)C(=O)N[C@@H](Cc1c[nH]c2ccccc12)C(=O)N[C@@H](CC(C)C)C(=O)N[C@H](C(=O)N[C@@H](CCCCN)C(=O)NCC(=O)N[C@@H](CCCNC(=N)N)C(N)=O)C(C)C [GLP-1-Gly2] |  |  |  |  | Emax [1]: 93 ± 3%; Emax [2]: 95 ± 4%
CC[C@H](C)[C@H](NC(=O)[C@H](Cc1ccccc1)NC(=O)[C@H](CCC(=O)O)NC(=O)[C@H](CCCCN)NC(=O)[C@H](C)NC(=O)[C@H](C)NC(=O)[C@H](CCC(N)=O)NC(=O)CNC(=O)[C@H](CCC(=O)O)NC(=O)[C@H](CC(C)C)NC(=O)[C@H](Cc1ccc(O)cc1)NC(=O)[C@H](CO)NC(=O)[C@H](CO)NC(=O)[C@@H](NC(=O)[C@H](CC(=O)O)NC(=O)[C@H](CO)NC(=O)[C@@H](NC(=O)[C@H](Cc1ccccc1)NC(=O)[C@@H](NC(=O)CNC(=O)[C@@H](CCC(N)=O)NC(=O)[C@H](C)NC(=O)[C@@H](N)Cc1c[nH]cn1)[C@@H](C)O)[C@@H](C)O)C(C)C)C(=O)N[C@@H](C)C(=O)N[C@@H](Cc1c[nH]c2ccccc12)C(=O)N[C@@H](CC(C)C)C(=O)N[C@H](C(=O)N[C@@H](CCCCN)C(=O)NCC(=O)N[C@@H](CCCNC(=N)N)C(N)=O)C(C)C [GLP-1-dGln3] |  |  |  |  | Emax ([1]; 30 min at 37 °C, 4-parameter fit, mean ± SEM, n = 5): 60 ± 4%; Emax ([2]; 30-min stimulation, 37 °C, no phosphodiesterase inhibitors, 4-parameter fit, mean ± SEM, n = 5): 106 ± 5%
FAEGTFISDYSIAMDKIHQQDFVNWLLAQKGKKNDWKHNITQ [GIP-Phe1] | 1000 nM | 65 ± 3% | 2 nM | 99 ± 3% | 
LgBiT-mini-Gs |  |  |  |  | t1/2 of ligand-induced mini-Gs recruitment [5]: 1.5 min; t1/2 of ligand-induced mini-Gs recruitment [6]: 7.1 min
YA[dQ]GTFISDYSIAMDKIHQQDFVNWLLAQKGKKNDWKHNITQ [GIP-dGln3] | 316 nM | 23 ± 1% | 25.1 nM | 110 ± 4% | 
YGEGTFISDYSIAMDKIHQQDFVNWLLAQKGKKNDWKHNITQ [GIP-Gly2] | 316 nM | 66 ± 7% | 0.794 nM | 100 ± 4% | 
YAEGTFISDYSIAMDKIHQQDFVNWLLAQKGKKNDWKHNITQ [GIP(1–42)] |  |  |  |  | cAMP (HTRF), Log EC50, 10 min stimulation, wildtype HEK293 cells transiently transfected with SNAP-GIPR [7]: -9.4 Log EC50 (M); cAMP (HTRF), Log EC50, 10 min stimulation, β-arrestin-1/2 knockout HEK293 cells transiently transfected with SNAP-GIPR [7]: -9.1 Log EC50 (M); cAMP (HTRF), Log EC50, 60 min stimulation, wildtype HEK293 cells transiently transfected with SNAP-GIPR [7]: -9.6 Log EC50 (M); cAMP (HTRF), Log EC50, 60 min stimulation, β-arrestin-1/2 knockout HEK293 cells transiently transfected with SNAP-GIPR [7]: -9.7 Log EC50 (M); cytoplasmic PKA activation (AKAR4-NES FRET, AUC), Log EC50, wildtype HEK293 cells co-transfected with SNAP-GIPR [8]: -10.1 Log EC50 (M); cytoplasmic PKA activation (AKAR4-NES FRET, AUC), Log EC50, β-arrestin-1/2 knockout HEK293 cells co-transfected with SNAP-GIPR [8]: -10.9 Log EC50 (M)

From publication PMC7948418, “Genetic and biased agonist-mediated reductions in β-arrestin recruitment prolong cAMP signaling at glucagon family receptors” (The Journal of Biological Chemistry, 2020)
